US20230174454A1, “PROCESS OF SYNTHESIZING AND PURIFYING (3R)-HYDROXYBUTYL (3R)-HYDROXYBUTANOATE” (Genomatica, Inc., priority 2020, published 2023)

Tests used:
[1] = Study to determine the boiling point of (3R)-hydroxybutyl (3R)-hydroxybutyrate, with colour change on boiling; format: physicochemical
Description: A study to determine the boiling point of (3R)-hydroxybutyl (3R)-hydroxybutyrate was performed.

Miscibility with water = format: physicochemical
From the text: In one specific embodiment, the compound of interest is (R)-3-hydroxybutyl (R)-3-hydroxybutanoate.

C[C@@H](O)CCOC(=O)C[C@@H](C)O [(3R)-hydroxybutyl (3R)-hydroxybutyrate, (R)-3-hydroxybutyl (R)-3-hydroxybutanoate]
Measured Boiling Point ([1]; Pressure 7 mbar): 155-159 °C | Measured Boiling Point ([1]; Pressure 15 mbar): 165-169 °C | Measured Boiling Point ([1]; Pressure 30 mbar): 174-179 °C | Measured Boiling Point ([1]; Pressure 60 mbar): 186-191 °C | Measured Boiling Point ([1]; Pressure 80 mbar): 197-204 °C | Measured Boiling Point ([1]; Pressure 120 mbar): 208-212 °C | Measured Boiling Point ([1]; Pressure 240 mbar): 215-219 °C | Measured Boiling Point ([1]; Pressure 500 mbar): 224-229 °C | Measured Boiling Point ([1]; Pressure 1000 mbar): 274-280 °C | Color Change ([1]; boiling at 7 mbar): no color change after 2 h of boiling | Color Change ([1]; boiling at 15 mbar): no color change after 2 h of boiling | Color Change ([1]; boiling at 30 mbar): no color change after 2 h of boiling | Color Change ([1]; boiling at 60 mbar): no color change after 2 h of boiling | Color Change ([1]; boiling at 80 mbar): no color change after 2 h of boiling | Color Change ([1]; boiling at 120 mbar): no color change after 1 h of boiling, very slight yellow tint is present after 1 h and 30 min of boiling | Color Change ([1]; boiling at 240 mbar): no color change after 1 h of boiling, very slight yellow tint is present after 1 h and 30 min of boiling | Color Change ([1]; boiling at 500 mbar): no color change after 1 h of boiling, very slight yellow tint is present after 1 h and 30 min of boiling | Color Change ([1]; boiling at 1000 mbar): slight yellow tint is present after 1 hour of boiling | miscibility with water (Miscibility with water; 50/50 (w/w) mixture of water/(R)-3-hydroxybutyl (R)-3-hydroxybutanoate): completely miscible with water | miscibility with water (Miscibility with water; 60/40 (w/w) mixture of water/(R)-3-hydroxybutyl (R)-3-hydroxybutanoate): completely miscible with water
